Active and inactive are the calls of the source. The rule behind the calls is not given here.
Molecular target: Nuclear receptor coactivator 1 (Homo sapiens) (UniProt Q15788)
Test: NCOA1-driven reporter transcription inhibition – cell-based, luminescence, late-stage follow-up (AID 651796)
Details: cell-based SRC1 reporter

Sequence of Nuclear receptor coactivator 1 (Homo sapiens) (Q15788 whole entry, looked up): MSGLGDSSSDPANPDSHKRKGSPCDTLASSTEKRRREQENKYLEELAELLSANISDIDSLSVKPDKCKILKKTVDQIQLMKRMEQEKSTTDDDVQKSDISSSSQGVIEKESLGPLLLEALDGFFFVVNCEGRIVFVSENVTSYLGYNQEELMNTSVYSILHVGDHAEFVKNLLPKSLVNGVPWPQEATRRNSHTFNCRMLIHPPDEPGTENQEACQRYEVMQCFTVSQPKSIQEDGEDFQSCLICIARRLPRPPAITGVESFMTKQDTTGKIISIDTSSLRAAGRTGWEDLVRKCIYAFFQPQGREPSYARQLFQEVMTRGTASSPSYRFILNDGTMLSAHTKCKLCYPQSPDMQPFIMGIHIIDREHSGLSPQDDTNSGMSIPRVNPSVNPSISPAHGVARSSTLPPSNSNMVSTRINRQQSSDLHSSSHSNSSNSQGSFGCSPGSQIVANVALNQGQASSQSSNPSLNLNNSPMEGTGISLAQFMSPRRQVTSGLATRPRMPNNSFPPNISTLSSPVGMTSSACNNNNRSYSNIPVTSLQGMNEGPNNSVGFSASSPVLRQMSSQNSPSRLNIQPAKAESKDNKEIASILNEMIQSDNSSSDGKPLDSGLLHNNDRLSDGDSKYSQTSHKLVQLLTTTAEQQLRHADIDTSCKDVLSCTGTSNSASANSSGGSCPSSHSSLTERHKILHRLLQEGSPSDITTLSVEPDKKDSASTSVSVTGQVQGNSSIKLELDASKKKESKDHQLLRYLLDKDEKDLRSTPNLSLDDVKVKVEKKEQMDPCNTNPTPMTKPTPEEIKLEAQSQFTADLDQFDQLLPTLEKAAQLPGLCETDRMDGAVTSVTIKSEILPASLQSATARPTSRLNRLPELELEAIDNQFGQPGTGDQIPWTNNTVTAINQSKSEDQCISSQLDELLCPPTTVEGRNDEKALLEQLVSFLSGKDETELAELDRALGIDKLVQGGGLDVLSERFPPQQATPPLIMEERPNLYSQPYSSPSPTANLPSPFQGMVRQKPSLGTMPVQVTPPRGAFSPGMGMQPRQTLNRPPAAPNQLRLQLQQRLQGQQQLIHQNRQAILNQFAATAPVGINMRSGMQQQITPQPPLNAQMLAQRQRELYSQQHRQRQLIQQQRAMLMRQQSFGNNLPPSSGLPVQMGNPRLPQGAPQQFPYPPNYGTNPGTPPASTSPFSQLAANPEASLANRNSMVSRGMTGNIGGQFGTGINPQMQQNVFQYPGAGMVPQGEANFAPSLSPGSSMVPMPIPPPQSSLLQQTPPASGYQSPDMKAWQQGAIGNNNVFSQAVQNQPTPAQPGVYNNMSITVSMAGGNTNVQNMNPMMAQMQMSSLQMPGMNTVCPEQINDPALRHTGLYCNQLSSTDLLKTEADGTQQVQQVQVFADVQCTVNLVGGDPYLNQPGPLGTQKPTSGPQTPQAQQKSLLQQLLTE

Compound: COc1ccc(Nc2ncnc3ccc(Br)cc23)c(OC)c1
- IC50: inactive

Compound: COc1ccc(NC(=O)CN(C)C(=O)C2(c3ccccc3)CCCC2)cc1
- IC50: 9.94 µM

From PubChem BioAssay AID651796 (The Scripps Research Institute Molecular Screening Center, 2012)
